Legend:
[1] = target: T1, human norepinephrine (NE) transporter (NET) (Homo sapiens, UniProt P23975); test: Norepinephrine transporter binding assay ([3H]nisoxetine, CEREP)
T1 construct: host or cells: CHO cells, cell membrane homogenates
Procedure: (§1) Transporter Binding and Cellular Uptake. All described monoamine transporter binding studies as well as cellular uptake assays were performed in duplicate by CEREP (Celle l'Evescault, France) and are described below. Further details of all assays performed may be accessed at the CEREP web site (world-wide-web at cerep.com). Cellular-based assays were conducted to provide complementary in vitro functional measures to complement the standard transporter assays as well as to provide direct comparisons of the homologs IPH with MPH with regard to DA, NE, and 5-HT uptake in synaptosomal preparations.
Norepinephrine Transporter Binding Assay. Evaluation of the affinity of the two compounds for the human norepinephrine (NE) transporter (NET) in transfected CHO cells was determined in a radioligand assay analogous to the procedures described for the DAT assay. Cell membrane homogenates were incubated for 90 min at 4° C. with 1 nM [^3H]nisoxetine in the absence or presence of each test compound in a standard buffer solution. Nonspecific binding was determined in the presence of 1 μM of desipramine. Following incubation, the samples were filtered rapidly under vacuum and rinsed several times with a buffer solution. The filters were then dried and radioactivity counts were obtained. The results are expressed as percent inhibition of the control radioligand specific binding. The standard reference compound was the tricyclic antidepressant (TCA) protriptyline, which was tested in each experiment at several concentrations to generate a competition curve from which its IC50 was calculated.

[2] = test system: human intestinal microsomes (HIM); test: Hydrolysis to ritalinic acid by human intestinal microsomes; format: in vitro ADME; conditions: 1 mM substrate, 0.2 mg/ml HIM, 37° C., 60 min
Procedure: (§2) FIG. 2—Hydrolysis of methylphenidate (MPH) and isopropylphenidate (IPH) by recombinant human CES1, HLM, HIM. After incubation with CES 1 transfected human cells, HLM, and HIM at 37° C. for 60 min, the metabolite RA produced via hydrolysis of MPH and IPH was determined by HPLC. Data are presented as mean±SEM of 3 to 6 independent experiments.
(§3) Determination of Relative Hydrolytic Rates of MPH and IPH. The assessment of relative rates of hydrolysis of the two ester compounds utilized both cell culture and human liver microsomes (HLM) and human intestinal microsomes (HIM). The human carboxylesterase 1 (hCES1) s9 fraction was prepared utilizing a novel method developed in the inventors' laboratory previously (Zhu et al., 2008). Hydrolysis of IPH and MPH by hCES1, HLM, and human intestinal microsomes was assessed by incubating the substrates with the respective enzymes and measuring the formation of the major metabolite RA formed via ester hydrolysis. Briefly, 50 μl of freshly prepared substrates (IPH and MPH) was mixed with 50 μl of enzymes in 1.5 ml Eppendorf tubes yielding a total volume of 100 μl. […] Concentrations of the primary hydrolytic product of the two compounds, RA were determined utilizing a validated HPLC method previously described.

[3] = target: T2, human carboxylesterase 1 (hCES1) (Homo sapiens, UniProt P23141); test: Hydrolysis to ritalinic acid by recombinant hCES1 (s9 fraction of transfected cells); format: in vitro ADME; conditions: 1 mM substrate, 60 min
T2 construct: expressed in transfected cells
T2 sequence (P23141 18-567): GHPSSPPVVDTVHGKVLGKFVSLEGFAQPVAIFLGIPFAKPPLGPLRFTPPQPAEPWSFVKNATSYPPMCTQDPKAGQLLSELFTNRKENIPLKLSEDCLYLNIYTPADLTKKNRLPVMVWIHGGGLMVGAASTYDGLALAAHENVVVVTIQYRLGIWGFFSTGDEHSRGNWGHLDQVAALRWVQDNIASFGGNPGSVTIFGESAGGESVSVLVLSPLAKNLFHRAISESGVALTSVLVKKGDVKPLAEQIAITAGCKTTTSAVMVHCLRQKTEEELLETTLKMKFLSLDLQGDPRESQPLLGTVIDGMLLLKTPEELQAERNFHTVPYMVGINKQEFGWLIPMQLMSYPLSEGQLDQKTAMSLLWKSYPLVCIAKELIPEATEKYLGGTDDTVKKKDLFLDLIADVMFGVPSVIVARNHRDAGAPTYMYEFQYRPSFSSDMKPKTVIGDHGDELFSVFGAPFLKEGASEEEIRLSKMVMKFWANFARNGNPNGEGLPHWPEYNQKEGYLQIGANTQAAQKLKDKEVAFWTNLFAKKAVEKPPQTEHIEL
Procedure: as §2, §3

[4] = test system: human liver microsomes (HLM); test: Hydrolysis to ritalinic acid by human liver microsomes; format: in vitro ADME; conditions: 1 mM substrate, 0.2 mg/ml HLM, 37° C., 60 min
Procedure: as §2, §3

[5] = target: T3, human dopamine (DA) transporter (DAT) (Homo sapiens, UniProt Q01959); test: Dopamine transporter binding assay ([3H]GBR 12935, CEREP); conditions: HCl salts
T3 construct: host or cells: CHO cells, cell membrane homogenates
T3 sequence (Q01959 whole entry): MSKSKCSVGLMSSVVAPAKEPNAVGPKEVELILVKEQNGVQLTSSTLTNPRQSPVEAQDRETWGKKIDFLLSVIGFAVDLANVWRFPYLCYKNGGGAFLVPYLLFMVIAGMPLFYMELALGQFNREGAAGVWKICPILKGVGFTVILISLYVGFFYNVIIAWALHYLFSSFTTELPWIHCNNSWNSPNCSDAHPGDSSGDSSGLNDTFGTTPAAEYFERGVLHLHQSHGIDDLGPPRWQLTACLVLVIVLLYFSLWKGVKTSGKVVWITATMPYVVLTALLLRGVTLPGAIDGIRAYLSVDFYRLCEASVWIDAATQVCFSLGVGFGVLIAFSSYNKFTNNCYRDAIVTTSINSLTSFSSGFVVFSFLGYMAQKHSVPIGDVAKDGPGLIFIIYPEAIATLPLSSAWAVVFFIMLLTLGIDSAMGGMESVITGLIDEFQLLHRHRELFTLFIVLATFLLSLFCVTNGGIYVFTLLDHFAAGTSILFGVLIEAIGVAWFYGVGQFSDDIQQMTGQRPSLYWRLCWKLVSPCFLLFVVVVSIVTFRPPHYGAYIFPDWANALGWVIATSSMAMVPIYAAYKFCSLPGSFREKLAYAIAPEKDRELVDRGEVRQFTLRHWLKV
Procedure: as §1, with “preparations. […]” for “preparations.”
Dopamine Transporter Binding Assay. Evaluation of the affinity of both compounds for the human dopamine (DA) transporter (DAT) in transfected Chinese Hamster Ovary (CHO) cells was determined in a validated radioligand binding assay. […] Nonspecific binding was determined in the presence of 10 μM N-[1-(Benzo[b]thien-2-yl-cyclohexyl)] piperidine (BTCP). […] The filters were then dried and measured for radioactivity with a scintillation counter (TopCount, Packard) using a liquid scintillation cocktail (Microscint 0, Packard). The results of DAT binding experiments as well as the other transporter assays described in the following sections were expressed as a percent inhibition of the control radioligand specific binding. […]

dogs = conditions: reserpine pre-treated dogs; cited from earlier work

T1 sequence (P23975 whole entry): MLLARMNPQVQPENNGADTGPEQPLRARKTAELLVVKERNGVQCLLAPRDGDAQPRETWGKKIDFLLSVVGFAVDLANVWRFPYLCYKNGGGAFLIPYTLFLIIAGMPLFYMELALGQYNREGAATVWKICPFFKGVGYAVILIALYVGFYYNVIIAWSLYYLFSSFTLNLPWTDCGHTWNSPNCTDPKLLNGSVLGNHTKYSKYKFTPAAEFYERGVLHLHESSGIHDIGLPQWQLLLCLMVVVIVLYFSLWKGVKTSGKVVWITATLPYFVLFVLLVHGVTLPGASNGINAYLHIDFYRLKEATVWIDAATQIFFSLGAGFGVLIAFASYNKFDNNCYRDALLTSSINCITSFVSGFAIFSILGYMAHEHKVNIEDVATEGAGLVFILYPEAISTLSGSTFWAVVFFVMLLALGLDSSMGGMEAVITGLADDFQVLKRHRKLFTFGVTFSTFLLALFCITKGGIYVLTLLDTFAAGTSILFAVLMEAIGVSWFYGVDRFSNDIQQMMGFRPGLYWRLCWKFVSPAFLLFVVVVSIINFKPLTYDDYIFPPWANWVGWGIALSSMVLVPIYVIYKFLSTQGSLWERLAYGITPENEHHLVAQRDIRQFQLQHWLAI

CC(C)OC(=O)C(c1ccccc1)C1CCCCN1 (racemic) [IPH, dl-threo-α-phenyl-2-piperidineacetic acid isopropyl ester]
NET affinity of IPH relative to MPH ([1]; 10 μM, inhibition of specific control binding): one-third
% inhibition of control specific binding, NET (h) ([1]; 10 μM, ligand [3H]nisoxetine, transfected CHO cells, HCl salts): 27%
catalytic activity of HIM on hydrolysis [2]: extremely low
substrate quality for hCES1 hydrolysis ([3]; 37° C.): poor substrate of hCES1
resistance to hydrolysis by HLM [4]: most resistant substrate to HLM
% inhibition of control specific binding, DAT (h) ([5]; 10 μM, ligand [3H]GBR-12935, transfected CHO cells): 97%
potency versus MPH in antagonizing the physiological influences of reserpine (dogs): lower potency

COC(=O)C(c1ccccc1)C1CCCCN1 (racemic) [MPH, dl-threo-methylphenidate, reference compound]
inhibition at 10 µM ([1]; ligand [3H]nisoxetine, transfected CHO cells, HCl salts, read-out: % inhibition of control specific binding, NET (h)): 88%
catalytic activity of HIM on hydrolysis [2]: extremely low
catalytic efficiency of hCES1-mediated hydrolysis, MPH relative to IPH ([3]; 0.5 mg/ml hCES1, 37° C., RA formation by HPLC): approximately 10 fold
inhibition at 10 µM ([5]; ligand [3H]GBR-12935, transfected CHO cells, read-out: % inhibition of control specific binding, DAT (h)): 101%
